Assay results taken from US20260000496A1, “MATERIALS AND METHODS FOR DRUG-INDUCED GINGIVAL OVERGROWTH” (Optimed Technology, Inc., priority 2019, published 2026).

System: Myd88
Assay: Mice study #1: Myd88 immunohistochemistry of gingival tissue
Type: in vivo
Settings: BALB/c
Procedure: Mice study #1: Pilot study to establish DIGO disease model. Sterile sutures (5-0 Silk thread, Ethicon, Johnson & Johnson, Somerville, NJ) were placed around the lower central incisors on both sides in BALB/c (Male) mice anaesthetized conditions using Ketamine (90-100 mg/kg bodyweight) and Xylazine (5-10 mg/kg body weight) using a 0.1 cc syringe with a 25-gauge needle intraperitoneally (FIG. 37). Mice were checked daily for intact suture placement and replaced when necessary. […] The controls were injected with the vehicle used to dissolve the drug, which was 10% ethanol and 10% polyethylene glycol castor oil (both Sigma-Aldrich, St. Louis MO) in distilled water. For preventive treatments, Folic acid was supplemented in the drinking water (10 μg/ml) ad libitum and methylcellulose gel with the Folic acid (100 μg/ml) microspheres was applied daily on the anterior gingiva. The three groups in this study were: • 1. Control group (n=1): no interventions were performed • 2. […] Treatments were continued for 28 days and digital images were captured over the time course.
Histopathology and Immunohistochemistry. […]
Immunohistochemical analysis. […] Then, we examined the histopathological images of the mice model type BALB/c and we assessed the expressions of the Myd88 in the disease group in comparison to the negative control and Folic acid treated group. […]

**Q.** How did the “Myd88 expression in the epithelium, disease group relative to folic acid prevention group” value turn out when `Nc1nc2ncc(CNc3ccc(C(=O)N[C@@H](CCC(=O)O)C(=O)O)cc3)nc2c(=O)[nH]1` [folic acid] was run?
**A.** Its value is “significantly higher compared to the prevention and control groups”.
